Measured values as given in PMC11218446, “Antibacterial efficacy and membrane mechanism of action of the Serratia-derived non-ionic lipopeptide, serrawettin W2-FL10” (Microbiology Spectrum, 2024).
Where “and” joins values, the source holds several entries; their conditions need not be identical. Equal entries are not always repeated. Marks after values point to notes of the source that are not given here.

What was measured:
[1] = tested on: L. monocytogenes ATCC 13932; test: Broth microdilution assay (OD 600 nm); format: cell-based, Listeria monocytogenes
Method: Serrawettin W2-FL10 (95% pure) was tested for antibacterial activity using a broth microdilution susceptibility assay ([6]), with melittin included as an antibiotic control. The serrawettin W2-FL10 was prepared in 70% MeCN to 1.00 mg/mL, from which aliquots were prepared using 70% MeCN to a concentration of 50 µg/mL or 500 µg/mL, while aliquots of melittin were prepared using analytical quality H2O to 128 µg/mL. Fifty microliters of the respective W2-FL10 aliquots or melittin were dispensed into a clear 96-well plate and a microdilution (in 70% MeCN for W2-FL10 or analytical quality H2O for melittin) was performed within the plate. The plate was air-dried to remove the solvent and placed in a desiccator with chloroform for 20 min for sterilization.
All the cultures (inoculated into 5 mL MHB, or 5 mL TSB for Listeria and Enterococcus strains) were incubated at 37°C to reach an optical density (OD) of 0.4 at 600 nm (∼10^7 CFU/mL). A 1:20 dilution of the test strain (final concentration of ∼10^5 CFU/mL) was prepared and 100 µL was dispensed into each well (final concentration of W2-FL10 at 1.5–125 µg/mL and melittin at 2–32 µg/mL). Sterile broth and the OD-adjusted inoculum were included as positive controls, while sterile broth (no inoculum) was included as a negative control. The 96-well plate was incubated for 18 h at 37°C. All the tests were performed in triplicate, with independent duplicates. Following incubation, the absorbance was measured using a microtiter plate reader at 600 nm. The 50% growth inhibition concentration (IC50) was determined using GraphPad Prism version 5 for Windows [GraphPad Software, San Diego, USA (www.graphpad.com)]. A sigmodal curve with variable slope was fitted to each set of dose-repose data according to Rautenbach et al. ([17]) using equation (1):
(1) Y=bottom+(top−bottom)/1+10^logIC50×Activity slope
The “top” and “bottom” are the maximum and minimum inhibition responses, respectively, for a particular set of dose-response data, while the activity slope is related to the Hill slope of a sigmoidal binding curve ([16]). […] The MIC value was determined for each set of dose-response data as the lowest concentration, resulting in ≥90% inhibition of the target cell growth. In addition to the MIC and IC50 inhibition parameters, an inhibition concentration factor (ICF), was calculated as outlined in Rautenbach et al. ([17]). The ICF is indicative of the concentration increase from the highest concentration where no activity is observed to the MIC of a compound.

[2] = Mammalian cell cytotoxicity, MTT assay; conditions: CHO cells
Method: (§1) To determine the biocompatibility of W2-FL10 as a potential therapeutic agent, the in vitro cytotoxicity of W2-FL10 against the CHO cell line ([50]) was determined over 48 h by the Drug Discovery and Development Centre at the University of Cape Town, as previously described by Mosmann ([51]). Briefly, W2-FL10 was prepared to a 10 mM stock solution in 100% DMSO and dilutions were prepared in growth media. The CHO cell line density of 10^5 cells/well in 96-well plates and allowed to attach for 24 h. Thereafter, the compound was added to the 96-well plates at various concentrations from 50 µM down to 16 nM and incubated for a further 48 h. At 44 h, MTT was added to the wells, and the plates were read 4 h later at 540 nm on a spectrophotometer. […] Finally, cell inhibition was plotted against concentration and the 50% lethal concentration (LC50) parameter and a minimum lethal concentration (MLC90) were obtained as described for the dose responses against bacterial targets above (equation 1).

[3] = tested on: Chinese hamster ovarian (CHO) cell line; test: Mammalian cell cytotoxicity, MTT assay; conditions: CHO cells
Method: as §1

three S. aureus strains = test: Membrane permeability assay, propidium iodide, summary; format: cell-based, Staphylococcus aureus; conditions: discussion
Method: The membrane permeability capabilities of the W2-FL10 against the S. aureus strains were determined using PI ([56]). Briefly, black 96-well plates were prepared with W2-FL10 at 6.25, 12.5, and 25 µg/mL, while 4–16 µg/mL of melittin was used as a positive permeability control, and the plates were dried as described in the “Antibacterial activity: broth microdilution assay” section. The S. aureus strains were inoculated into MHB, grown to mid-log phase (OD600 of 0.5–0.6), and diluted to OD600 of 0.3. PI (stock concentration of 1 mg/mL in analytical quality H2O) was added to the cell suspension to a final concentration of 10 µg/mL and cells were incubated in the dark at room temperature for 20 min. Thereafter, 100 µL of OD-adjusted PI cells in the mid-log phase were dispensed into each well. Sterile broth and the OD-adjusted inoculum with PI were included as a non-fluorescent control, while sterile broth with PI was included as a sterility control, and melittin was included as membrane depolarization control. […] Fluorometric readings of the plate were conducted in 4-min intervals over 60 min (readings began ~60 s after cells were added to the plate) using a Tecan Spark at 535 nm excitation wavelength and 617 nm emission wavelength.
The leakage kinetics or PI permeabilization kinetic was assessed using a rate parameter of ΔPI fluorescence per minute. […]

[4] = Lipophilicity, miniaturized shake-flask log D; format: physicochemical; conditions: 96-well, 1-octanol/phosphate buffer pH 7.4, shaken 2 h at 25°C, HPLC-UV
Method: The lipophilicity of the compound was measured using a miniaturized shake-flask method, in 96-well plate format ([48]). Briefly, equal volumes of 1-octanol and phosphate buffer at pH 7.4 were added to each compound in a deep well plate. The plate was shaken vigorously for 2 h at 25°C. The phases were then carefully separated and transferred to another plate. Analysis was performed by HPLC-UV and log D values were determined from the peak areas of the compound in octanol and buffer phases.

CCCCCCCC1CC(=O)N[C@H](CC(C)C)C(=O)N[C@@H](CO)C(=O)N[C@@H]([C@@H](C)O)C(=O)N[C@H](Cc2ccccc2)C(=O)N[C@@H](CC(C)C)C(=O)O1 (stereo partly drawn) [W2-FL10, serrawettin W2-FL10]
IC50 ± SD ([1]; 50% growth inhibition, sigmoidal curve fit, n = 3): 3.8 ± 0.2 (3) µg/mL | Selectivity index ([1]; LC50 (CHO)/IC50): 7.6 | ICF (MIC/IC50)^2 ([1]; inhibition concentration factor): 2.7 | MIC ([1]; ≥90% growth inhibition, OD 600 nm, TSB, 18 h 37°C): 6.3 μg/mL and 6.3 (8.5) μg/mL | CC50 at 48 h [2]: 40 µM and 29 µg/mL | MLC, minimum lethal concentration ([3]; MTT, 48 h, MLC90): 36.6 (50.0)^e μg/mL | ICF (MIC/IC50)^2 ([3]; from MLC and LC50): 1.6 | time within which delayed leakage of PI occurred (three S. aureus strains): 30 to 45 min | logD at 2 h [4]: 2.5
